Assay results as given in the RepoRT retention time repository.

Assay: Agilent ZORBAX 300 SB-C18, 150 × 1 mm, 3.5 µm; A: water + 0.01% heptafluorobutyric acid; B: acetonitrile + 0.01% heptafluorobutyric acid; gradient (min/%B) 0/0 100/90
Conditions: stereoisomer not certain

c1ccc2ncccc2c1 and O=Cc1ccc2cccnc2c1 are within 1.5-fold of each other in LC retention time: 7.27 min for the first, 8.85 min for the second.

First: Nn1cnn(Cc2ccccc2)c1=S
Second: Cc1ccc(C)n1Cc1ccccc1
The LC retention time of the first is 1.6-fold lower: 10.3 min for the first, 16.8 min for the second.

COc1ccc(NC(=O)Nc2ccc(OC)c(OC)c2)cc1OC and COc1ccc(OC)c(C(=O)C=Cc2ccc(OC)c(OC)c2OC)c1 are within 1.5-fold of each other in LC retention time: 10.2 min for the first, 15.2 min for the second.

Cc1cccc(-c2ccnc(=S)[nH]2)c1 and S=c1nccc(-c2ccc3ccccc3c2)[nH]1 are within 1.5-fold of each other in LC retention time: 9.59 min for the first, 10.6 min for the second.

Going from Cc1ccc(C(=O)c2ccc(CC(=O)O)n2C)cc1 to CCCOC(=O)c1ccc(NC(=O)c2ccc(C)cc2)cc1, the LC retention time rises from 10.5 min to 16.2 min (1.5-fold).

Going from COC(=O)c1ccc(Cn2c(=O)n(C)c(=O)c3ccccc32)cc1 to CCNC(=O)c1ccc(CN2CCc3ccccc3C2)cc1, the LC retention time falls from 13.1 min to 8.52 min (1.5-fold).

Cc1cc(C)c(N)c(C(=O)O)c1 and Cc1ccc(N)cc1C(=O)O are within 1.5-fold of each other in LC retention time: 10.4 min for the first, 7.34 min for the second.

First: CC1(C)CC(=NNC(=O)C(=O)NN=C2CC(C)(C)NC(C)(C)C2)CC(C)(C)N1
Second: CC(=O)C(=C1NC(C)(C)Cc2cc(C)c(C)cc21)c1ccccc1
The LC retention time of the first is 2.4-fold lower: 7.32 min for the first, 17.6 min for the second.

O=c1ccc2ccccc2[nH]1 and Cc1nc2ccccc2[nH]1 are within 1.5-fold of each other in LC retention time: 8.83 min for the first, 7.36 min for the second.

Going from CC(=O)C=Cc1ccccc1 to NC(=O)C(O)c1ccccc1 (stereo unspecified), the LC retention time falls from 11.8 min to 6.19 min (1.9-fold).

Cc1ccc(N)cc1N and Cc1cccc(N)c1 are within 1.5-fold of each other in LC retention time: 6.85 min for the first, 8.01 min for the second.

COC(=O)Cn1c(=O)n(C)c2c(=O)n(C)c(=O)n(C)c21 and CCN(CC)CCn1cnc2c1c(=O)n(C)c(=O)n2C are within 1.5-fold of each other in LC retention time: 8.93 min for the first, 7.8 min for the second.

First: CCn1cc(-c2ccn[nH]2)cn1
Second: CCn1cc(CCC(=O)O)c2ccccc21
The LC retention time of the first is 1.6-fold lower: 7.93 min for the first, 12.4 min for the second.

Compared with Cc1cc(-c2noc(-c3ccco3)n2)c2ccccc2n1, Cc1cc(C(N)=O)c2ccccc2n1 is 1.9-fold lower in LC retention time: 13.1 min for the first, 7 min for the second.

O=C(NCCOc1ccccc1)Nc1cccc(NC(=O)NCCOc2ccccc2)c1 and S=C(Nc1cccnc1)N(CCc1ccccc1)Cc1ccccc1 are within 1.5-fold of each other in LC retention time: 13.6 min for the first, 12.8 min for the second.

O=C(O)CCCCC1SCC2NC(=O)NC21 (stereo unspecified) and COC(=O)C1CCCNC1=O (stereo unspecified) are within 1.5-fold of each other in LC retention time: 7.67 min for the first, 6.61 min for the second.

Going from c1ccc(-c2cc(-c3ccccc3)n(-c3ccccc3)n2)cc1 to c1ccc(N=c2scc(-c3ccccc3)n2-c2ccccc2)cc1, the LC retention time falls from 19 min to 12.4 min (1.5-fold).

Cc1cccc(NC(=O)C(Cc2c[nH]c3ccccc23)NC(=O)C(c2ccccc2)c2ccccc2)c1 (stereo unspecified) and COC(=O)c1ccccc1NCc1ccccc1CNc1ccccc1C(=O)OC are within 1.5-fold of each other in LC retention time: 16.8 min for the first, 20.7 min for the second.

CC(C)C1CN(Cc2ccco2)CCN1 (stereo unspecified) and Cc1ccc(C(=O)NCc2ccco2)cc1 are within 1.5-fold of each other in LC retention time: 7.94 min for the first, 11.7 min for the second.

NCCCOc1ccccc1 and C[N+](C)(N)Cc1ccccc1 are within 1.5-fold of each other in LC retention time: 8.2 min for the first, 7.54 min for the second.

CCCNC(=O)c1ccccc1N and CCC(O)(CC)c1ccccc1N are within 1.5-fold of each other in LC retention time: 9.35 min for the first, 8.79 min for the second.

Cc1ccc(-n2nc(-c3cn(C)nc3C)cc2-c2cn(C)nc2C)cc1 and Cc1cccc(Oc2cc(C)nc3ccc(C)cc23)c1 are within 1.5-fold of each other in LC retention time: 12 min for the first, 11.8 min for the second.

Going from CCN(CC)c1ccc(C(=O)NCC(C)C)cc1 to CCN(CC)c1ccc(CNCCCN(C)C)cc1, the LC retention time falls from 11.7 min to 7.76 min (1.5-fold).

Nc1cccc(C2OCCCO2)c1 and Nc1ccc2c(c1)CCC2 are within 1.5-fold of each other in LC retention time: 7.87 min for the first, 8.35 min for the second.

Cc1ccc(NC(=S)NN=C2CCN(C(C)C)CC2)cc1 and CC(C)c1ccccc1NC(=S)NCCN1CCN(C(=S)Nc2ccccc2C(C)C)CC1 are within 1.5-fold of each other in LC retention time: 9.64 min for the first, 12.5 min for the second.

O=C(O)c1ccc(=O)[nH]c1 and NC(CC(=O)O)c1ccc(C(=O)O)cc1 (stereo unspecified) are within 1.5-fold of each other in LC retention time: 4.42 min for the first, 6.32 min for the second.

CC(C)c1cc[nH]c1-c1ccccc1 and COC(=O)c1c(C)[nH]c(-c2ccccc2)c1-c1ccccc1 are within 1.5-fold of each other in LC retention time: 16.3 min for the first, 15.6 min for the second.

Cc1ccc2nc(-c3nn[nH]n3)ccc2c1 and O=c1ccc2nc3ccc(O)cc3oc-2c1 are within 1.5-fold of each other in LC retention time: 10.5 min for the first, 9.57 min for the second.

O=C(c1ccc(CN2CCc3ccccc3C2)cc1)N(Cc1ccccc1)Cc1ccccc1 and c1ccc(CCn2c(-c3ccccc3)csc2=Nc2ccccc2)cc1 are within 1.5-fold of each other in LC retention time: 12.5 min for the first, 13.8 min for the second.

O=Cc1cccc2ncccc12 and Nc1ncnc2ccccc12 are within 1.5-fold of each other in LC retention time: 8.73 min for the first, 6.84 min for the second.

First: CCCNC(=O)Nc1ccc(C(=O)OC)cc1
Second: CCCCc1ccc(NC(=O)c2ccc(OC(C)=O)cc2)cc1
The LC retention time of the first is 1.5-fold lower: 10.8 min for the first, 16.5 min for the second.

CCCN1CCCCC1C(=O)Nc1c(C)cccc1C (stereo unspecified) and Cc1ccc2c(c1)C1CN(C)CCC1N2C(=O)CN1CCCCC1 (stereo unspecified) are within 1.5-fold of each other in LC retention time: 9.88 min for the first, 7.91 min for the second.

CCCCN=CC1=C(O)CC(c2ccccc2)CC1=O (stereo unspecified) and CC1CCC(c2cn(C)c3ccccc23)C(=O)C1 (stereo unspecified) are within 1.5-fold of each other in LC retention time: 13.3 min for the first, 15.7 min for the second.

First: Nc1c(S(=O)(=O)O)[nH]c(=O)[nH]c1=O
Second: Nc1ccc[nH]c1=O
The LC retention time of the first is 2.4-fold lower: 1.22 min for the first, 2.98 min for the second.

Compared with O=C(O)c1c2ccccc2nc2ccccc12, O=C(O)c1c(-c2ccccc2)c(-c2ccccc2)n[nH]c1=O is 1.7-fold higher in LC retention time: 5.86 min for the first, 9.72 min for the second.

C=CCNc1ccccc1 and CNC(C)C(O)c1ccccc1 (stereo unspecified) are within 1.5-fold of each other in LC retention time: 9.55 min for the first, 8.37 min for the second.

Cc1cnc2c(ccc3c(C)c(C)cnc32)c1C and Cc1cc(C)c(NC(=O)c2ccncc2)c(C)c1 are within 1.5-fold of each other in LC retention time: 9.85 min for the first, 10.4 min for the second.

First: COc1ccc2nc(C)c3c(c2c1)OC(C)C3 (stereo unspecified)
Second: CC(=O)Oc1ccccc1C=Cc1nc2ccccc2c(=O)o1
The LC retention time of the first is 1.6-fold lower: 9.25 min for the first, 14.8 min for the second.

Nc1ccc(-c2cccs2)cc1 and NCCc1cccs1 are within 1.5-fold of each other in LC retention time: 10.5 min for the first, 7.47 min for the second.

Compared with O=C(O)c1cc(-c2ccccc2)c(C(=O)O)cn1, c1ccc(-c2cc(N3CCCCC3)c3ccccc3n2)cc1 is 1.9-fold higher in LC retention time: 6.42 min for the first, 12 min for the second.

CC(CCc1ccccc1)NC(=S)Nc1cccnc1 (stereo unspecified) and CC(N)C(=O)Nc1ccc2ccccc2c1 (stereo unspecified) are within 1.5-fold of each other in LC retention time: 11.1 min for the first, 9.02 min for the second.

Cc1cc(C=NNC(N)=S)c(C)n1-c1ccccc1 and CN(C)c1ccc(C=NNC(=O)c2cccc(N)c2)cc1 are within 1.5-fold of each other in LC retention time: 12.7 min for the first, 9.41 min for the second.

O=CC1C(=O)Nc2ccccc21 (stereo unspecified) and CCOC(=O)CN1C(=O)N(C)Cc2ccccc21 are within 1.5-fold of each other in LC retention time: 8.65 min for the first, 11.4 min for the second.

COc1cccc2c1NCCC2 and CC1(C)Cc2ccccc2C(C2=C(O)CCCC2=O)=N1 are within 1.5-fold of each other in LC retention time: 8.45 min for the first, 10.1 min for the second.

Going from Cc1cc(C)c2c(=O)n(CC(=O)NCCCc3ccccc3)c(=O)n(C)c2n1 to Cc1nn(CC(=O)NCc2ccccn2)c(=O)c2ccccc12, the LC retention time falls from 14.1 min to 8.37 min (1.7-fold).

CCN(CC)CCC(O)(c1ccccc1)C1CCCCC1 (stereo unspecified) and CN1CCC(OC(=O)Cc2ccccc2)CC1 are within 1.5-fold of each other in LC retention time: 11.3 min for the first, 8.85 min for the second.

Cc1nnc(NN=Cc2ccc(N(C)C)cc2)[nH]c1=O and CC(=O)N(C)c1ccc(O)cc1 are within 1.5-fold of each other in LC retention time: 9.86 min for the first, 7.68 min for the second.

CCCCCCC1(C)OCOC1=CC[N+](C)(C)C (stereo unspecified) and CCCCCCCNC(=O)c1ccc(OC(C)=O)cc1 are within 1.5-fold of each other in LC retention time: 10.8 min for the first, 14.9 min for the second.

COc1ccc(-c2cc(=O)c3c(ccc4ccccc43)o2)cc1 and O=C(CNc1cccc2ccccc12)NN=CC=Cc1ccccc1 are within 1.5-fold of each other in LC retention time: 17 min for the first, 15.5 min for the second.

Compared with Cn1c(=O)n(-c2cccc(N)c2)c(=O)n1C, Cn1ccc2cc(C=O)ccc21 is 1.6-fold higher in LC retention time: 7.06 min for the first, 11.3 min for the second.

First: CC(C)CC(NC(=O)CN)C(=O)O (stereo unspecified)
Second: CC(C)(C)c1ccc(C(CC(=O)O)NC(=O)c2ccccc2)cc1 (stereo unspecified)
The LC retention time of the first is 1.8-fold lower: 7.75 min for the first, 13.7 min for the second.

First: COc1ccc(NC(=O)Nc2ccc(OCC(=O)N3CCOCC3)cc2)cc1
Second: CCOc1ccc(C(=O)NNC(=O)COc2ccc(C(C)CC)cc2)cc1 (stereo unspecified)
The LC retention time of the first is 1.5-fold lower: 10 min for the first, 15 min for the second.

CCNC(=S)N1CCCC(C(N)=O)C1 (stereo unspecified) and NC(=O)C1(N2CCCCC2)CCN(C(=O)CN2CCNCC2)CC1 are within 1.5-fold of each other in LC retention time: 7.41 min for the first, 7.28 min for the second.

CC1CC(O)(CC(O)(c2ccccc2)c2ccccc2)C(C)CN1C (stereo unspecified) and CC(C)(C)c1ccc(C(=O)N2CCN(Cc3ccccc3)CC2)cc1 are within 1.5-fold of each other in LC retention time: 10.2 min for the first, 11.1 min for the second.

CC(C)c1ccc(C(=O)CCN(C)C)cc1 and Cc1ccc(C(=O)NC(C)c2ccc(O)cc2)cc1 (stereo unspecified) are within 1.5-fold of each other in LC retention time: 9.8 min for the first, 11.1 min for the second.

CNCCC=C1c2ccccc2CCc2ccccc21 and O=C(CCN1C(=O)c2ccccc2C1=O)NCc1ccco1 are within 1.5-fold of each other in LC retention time: 11.7 min for the first, 10.2 min for the second.

CC1CN=C(NC2CCCCC2)S1 (stereo unspecified) and CN1C(=O)C(CC(=O)NC2CCCCC2)N(C)C1=O (stereo unspecified) are within 1.5-fold of each other in LC retention time: 7.02 min for the first, 8.55 min for the second.

Compared with Cc1ncc(C[n+]2csc(CCOP(=O)(O)OP(=O)(O)O)c2C)c(N)n1, CCCCC1(C)NC(=S)N(c2ccc(C)cc2)N1 (stereo unspecified) is 9.3-fold higher in LC retention time: 1.62 min for the first, 15.1 min for the second.

CN1CCC(NCc2cccnc2)CC1 and c1ccc(CN2CCN(Cc3ccncc3)CC2)nc1 are within 1.5-fold of each other in LC retention time: 7.19 min for the first, 7.31 min for the second.

Compared with CCCCCCCCCCNCCCCCCCCCC, O=S(=O)(O)CCCN1CCOCC1 is 11-fold lower in LC retention time: 17.8 min for the first, 1.67 min for the second.

Cc1cc(C)ncn1 and Cc1nccnc1C are within 1.5-fold of each other in LC retention time: 7.51 min for the first, 7.59 min for the second.

O=c1[nH][nH]c2c1CCCC2 and C=CCC1(CC=C)CNCCN1 are within 1.5-fold of each other in LC retention time: 7.38 min for the first, 7.33 min for the second.

Going from O=P(O)(O)CN(CCN(CP(=O)(O)O)CP(=O)(O)O)CP(=O)(O)O to Cc1cccnn1, the LC retention time rises from 1.09 min to 5.91 min (5.4-fold).
